In patent US12415819B2, “Cu- and Ni-catalyzed decarboxylative borylation reactions” (The Scripps Research Institute, priority 2017, dated 2025):
≈ marks a conversion by molar mass, not a printed value. Where “and” joins values, the source holds several entries; their conditions need not be identical. Equal entries are not always repeated.

Columns and labels:
[1] = target: elastase in CF patient sputum (Homo sapiens (Human), UniProt P08246); experiment: Elastase inhibition assay in CF patient sputum; type: biochemical
Chain of elastase in CF patient sputum (P08246 30-267): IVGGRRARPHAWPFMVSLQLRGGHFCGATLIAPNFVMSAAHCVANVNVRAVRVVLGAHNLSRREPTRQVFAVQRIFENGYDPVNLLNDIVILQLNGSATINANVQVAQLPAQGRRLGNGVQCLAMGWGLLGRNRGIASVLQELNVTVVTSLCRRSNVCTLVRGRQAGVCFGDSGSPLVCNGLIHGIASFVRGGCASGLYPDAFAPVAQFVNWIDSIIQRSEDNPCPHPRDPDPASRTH
Protocol: (§1) Serially diluted compounds in DMSO were dispensed into a 384-well black opaque plate by Echo dispenser. 0.1 μg/mL human neutrophil elastase (EPC, Catalog# SE563, Owensville, Ms.) or human sputum diluted with assay buffer (100 mM HEPES, 500 mM NaCl, 0.02% Tween 20) was added into the 384-well plate, and was incubated with different compounds at different concentrations for 30 minutes at room temperature. The final concentration of DMSO in the reaction was 0.1%. Elastase substrate MeOSuc-AAPV-AMC (Bachem, Catalog #I-1270, Torrance, CA) of 100 μM final concentration was then added into the reaction system just before enzyme kinetics were read on PheraSTAR plate reader at excitation of 380 nm and emission of 460 nm with a 3-minutes interval for 30 minutes in total. Slope of fluorescence intensity vs. time representing the Vmax of enzyme activity was calculated with MARS software. % relative inhibition was calculated as: […]
(§2) IC50 was calculated based on the % relative inhibition curve using log(agonist) vs. response (three parameters) method with Prism software. All experiments were performed in triplicate for at least three independent times.
(§3) Human sputum was purchased from Discovery Life Sciences (Los Osos, CA). Human sputum was diluted 1:10 in volume with assay buffer (100 mM HEPES, 500 mM NaCl, 0.02% Tween 20) followed by vigorous vortexing. The 1:10 diluted human sputum was further diluted into 1:30, 1:90, 1:270, 1:810, and 1:2430. The elastase concentration was determined by elastase inhibition assay as described above. Specifically, a series of standards of human neutrophil elastase (starting at 2 μg/mL and further diluted 1:2 in volume) were prepared in the assay buffer. The samples and standards were plated in a 384-well black solid bottom plate; the substrate MeOSuc-AAPV-AMC of 100 μM final concentration was then added into the reaction system just before enzyme kinetics were read on PheraSTAR plate reader as mentioned above. The slope of enzymatic kinetic reading was calculated by MARS software. The elastase levels of the human sputum were calculated based on the standard curve.

in vitro = experiment: in vitro
Protocol: 100 mM potassium phosphate buffer, pH 7.4. • 2. 10 mM MgCl2 • 3) Compound Dilution:
Intermediate solution was prepared by diluting 5 μL of compound or control stock solution (10 mM in DMSO) with DMSO (45 μL) and 1:1 Methanol/Water (450 μL) (concentration=100 μM, 45% MeOH). Working solution was prepared by diluting 50 μL of the intermediate solution with 450 μL of 100 mM potassium phosphate buffer, pH=7.4 (centration=10 μM, 4.5% MeOH). • 4) NADPH regenerating system (final Isocitric dehydrogenase concentration=1 unit/mL at incubation) comprised:
10 μL/well of compound working solution or control working solution was added to all plates (T0, T5, T10, T20, T30, T60, NCF60) except the matrix blank. 80 μL/well of microsome solution was added to every plate. The mixtures of microsome solution and compound were incubated at 37° C. for about 10 min. 10 μL/well of NADPH regenerating system (pre-warmed to 37° C.) was then added to every plate to start the reaction. […] For NCF60 (abbreviation of no co-factor) no NADPH regenerating system was added, but was replaced by 10 μL/well of potassium phosphate buffer (100 mM, pH 7.4); the resulting mixture was incubated at 37° C. for 1 h.
The reactions were then terminated with the stop solution (cold at 4° C.) containing 100 ng/mL Tolbutamide and 100 ng/mL Labetalol ([…]). The sampling plates were shaken for approximately 10 minutes, then were centrifuged at 4000 rpm for 20 min at 4° C. While centrifuging, 8 new 96 well plates were loaded with […] of HPLC grade water. 100 μL of supernatant was finally added to 300 μL of HPLC grade water and mixed for LC/MS/MS analysis.
The equation of first order kinetics was used to calculate T1/2 and CIint(mic): […]

Plasma Stability Assay = type: in vitro ADME, mouse
Protocol: Propantheline was used as the reference compound in this assay; all stock solutions were stored at −40° C. before use. • 2) Test system: CD-1 Mouse Plasma from a minimum of 20 male individuals were obtained from BioreclamationlVT (Catalog #: […]2-M; Batch #: MSE244515). EDTA-K2 was used as the anticoagulant. Procedure:
The frozen plasma was thawed in a water bath at 37° C. prior to the experiments. The plasma was centrifuged at 4000 rpm for 5 min and the clots were removed if necessary.
The pH was adjusted to 7.4±0.1 as necessary. An intermediate solution (1 mM) was prepared and a 100 μM dosing solution was prepared by diluting 10 μL of the intermediate solution with 90 μL 45% MeOH/H2O. Duplicate of test samples were made by mixing 98 μL of blank plasma with 2 μL of dosing solution (100 μM) to achieve the final concentration of 2 μM. Samples were incubated at 37° C. At each time point (0, 10, 30, 60, and 120 min), 400 μL of stop solution (consisting of 200 ng/mL tolbutamide and 20 ng/mL buspirone in 50% MeOH/CH3CN) was added to precipitate protein under thorough mixing. The sample plates were then centrifuged at 4,000 rpm for 10 min. An aliquot of supernatant (100 μL) was transferred from each well and mixed with 200 of μL ultrapure water. The samples were shaken at 800 rpm for about 10 min before LC-MS/MS analysis.
Data analysis: The % remaining of test compound after incubation in plasma was calculated using following equation: Remaining=100×(PAR at Tn/PAR at T0) where PAR is the peak area ratio of analyte versus internal standard (IS) and The appointed incubation time points are T0 (0 min), Tn (n=0, 10, 30, 60, 120 min).
LC-MS/MS condition: Each compound was analyzed by LC/MS using an ACE 5-phenyl 50×2.1 mm column (Part No. ACE-125-0502) with 0.1% formic acid in water and 0.1% formic acid in acetonitrile as the mobile phases. Tobultamide was used as the internal standard. Data collected were processed by Analyst 1.6.2 software and MultiQuant 3.0.2 software.

Kinetic Solubility Test = type: physicochemical
Protocol: The stock solution of each compound (10 μL; 10 mM in DMSO) was diluted with phosphate buffer solution (490 μL; 50 mM, pH 6.8). The resulting mixture was shaken for 24 h. Samples were then filtered.

[2] = target: elastase in COPD patient sputum (Homo sapiens (Human), UniProt P08246); experiment: Elastase inhibition assay in COPD patient sputum; type: biochemical
Chain of elastase in COPD patient sputum (P08246 30-267): as above
Protocol: as §1, §2, §3

Caco-2 cells = experiment: in vitro; details: Caco-2
Protocol: Digoxin, fenoterol, and propranol were used as standards respectively. Transport Method:
The transport buffer used in the study was HBSS with 10 mM HEPES at pH 7.40±0.05. Compounds were tested at 2 μM bi-directionally in duplicates. Digoxin was tested at […] bi-directionally in a duplicate, while fenoterol and propranolol were tested at 2 μM in A(apical) to B (basolateral) direction in duplicates. The final DMSO concentration was adjusted to less than 1%. The plate was incubated for 2 hours in a CO2 incubator at 37±1° C., with 5% CO2 at saturated humidity without shaking. All samples, after mixing with acetonitrile containing internal standard, were centrifuged at 4000 rpm for 20 min. Subsequently,100 μL supernatant solution was diluted with 100 μL distilled water for LC/MS/MS analysis. Concentrations of test and control compounds in starting solution, donor solution, and receiver solution were quantified by LC/MS/MS methodologies, using peak area ratio of analyte/internal standard. After transport assay, lucifer yellow rejection assay was applied to determine the Caco-2 cell monolayer integrity.
Data analysis: The apparent permeability coefficient Papp (cm/s) was calculated using the equation:
The efflux ratio was calculated using the equation: Efflux ratio=Papp(BA)/Papp(AB)
Percent recovery was calculated using the equation: % Recovery=100×[(Vr·Cr)+(Vd·Cd)]/(Vd·C0) Where Vd is the volume in the donor chambers (0.075 mL on the apical side, 0.25 mL on the basolateral side); Cd and Cr are the final concentrations of transport compound in donor and receiver chambers, respectively.

[3] = target: T1, human neutrophil elastase (Homo sapiens (Human), UniProt P08246); experiment: Elastase inhibition assay, purified human neutrophil elastase; type: biochemical; details: for IC50: read-out: IC50
T1 sequence (P08246 30-247): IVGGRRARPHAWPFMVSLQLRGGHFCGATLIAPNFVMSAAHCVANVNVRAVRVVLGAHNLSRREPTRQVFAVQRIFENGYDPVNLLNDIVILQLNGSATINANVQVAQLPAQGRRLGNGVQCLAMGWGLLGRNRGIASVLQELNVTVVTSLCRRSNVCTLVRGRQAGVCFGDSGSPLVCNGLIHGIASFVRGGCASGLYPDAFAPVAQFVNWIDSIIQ
Protocol: as §1, with “Elastase substrate MeOSuc-AAPV-AMC (Bachem, Catalog #I-1270, Torrance, CA) of 100 μM final concentration was then added into the reaction system just before enzyme kinetics were read on PheraSTAR plate reader at excitation of 380 nm and emission of 460 nm with a 3-minutes interval for 30 minutes in total.” left out
as §2

[4] = target: T1, human neutrophil elastase; experiment: Time dependence of elastase inhibition; type: biochemical
Protocol: The procedure for the elastase inhibition assay was followed with slight modifications. 0.1 μg/mL human neutrophil elastase was incubated with a range of concentrations of inhibitors for 5, 15, 30 and 60 minutes before substrate MeOSuc-AAPV-AMC of 100 μM final concentration was added. Enzyme kinetics were read on PheraSTAR plate reader and IC50 was calculated with the method described above.

[5] = target: T1, human neutrophil elastase; experiment: Elastase inhibition assay, purified human neutrophil elastase; type: biochemical
[6] = mouse, microsomes, 1 h, 1 μM, pH 7.4

In the case of `COC(=O)N[C@H](C(=O)N1CCC[C@H]1C(=O)N[C@H](B(O)O)C(C)C)C(C)C` [Compound 50, ((R)-1-((S)-1-((methoxycarbonyl)-L-valyl)pyrrolidine-2-carboxamido)-2-methylpropyl)boronic acid], the IC50 ([1]; CF sputum) is reported as 0.51 ± 0.04 nM, the Extraction ratio (in vitro; mouse, 1 μM, pH 7.4) is reported as less than 0.3 and the “Remaining (*NCF = 60min)” value (in vitro; [6]) is reported as 99.0%. The “Remaining (T = 60 min)” value (in vitro; [6]) was 78.5%, the CLint scaled at 1 μM (in vitro; mouse, microsomes, pH 7.4) was less than 38 mL/min/kg and the half-life at 1 μM (in vitro; mouse, microsomes, pH 7.4) was greater than 2.42 h. The microsomal CLint at 1 μM (in vitro; mouse, microsomes, pH 7.4) was less than 9.6 µL/min/mg, the “% Remaining (mean)” value (Plasma Stability Assay; CD-1 Mouse Plasma, 0 min, 2 μM, 37° C.) was 100.0% and the “% Remaining (mean)” value (Plasma Stability Assay; CD-1 Mouse Plasma, 10 min) was 100.5%. For the same compound, the “% Remaining (mean)” value (Plasma Stability Assay; CD-1 Mouse Plasma, 30 min) was 105.2%, the “% Remaining (mean)” value (Plasma Stability Assay; CD-1 Mouse Plasma, 60 min) was 88.0% and the “% Remaining (mean)” value (Plasma Stability Assay; CD-1 Mouse Plasma, 120 min) was 76.7%. For the same compound, the solubility kinetic at 24 h (Kinetic Solubility Test; aqueous buffer, kinetic from dmso stock, phosphate buffer pH 6.8, 24 h) was > 74.2 µg/mL and > 200 µM and the IC50 [2] was 0.274 ± 0.004 nM.
For `CC(C)[C@H](NC(=O)c1ccc(C(=O)NS(=O)(=O)c2ccc(Cl)cc2)cc1)C(=O)N1CCC[C@H]1C(=O)N[C@H](C(=O)C(F)(F)F)C(C)C` [Compound 51a], the “CLint(liver)” value (in vitro; MLM 0.5) was 76.6 mL/min/kg, the “Remaining (*NCF = 60min)” value (in vitro; MLM 0.5, no co-factor) was 91.7% and the “Remaining (T = 60 min)” value (in vitro; MLM 0.5, with NADPH regenerating system) was 52.2%. For the same compound, the “% Remaining (mean)” value (Plasma Stability Assay; mouse, plasma, 10 min) was 99.0%, the “% Remaining (mean)” value (Plasma Stability Assay; mouse, plasma, 0.5 h) was 109.1% and the “% Remaining (mean)” value (Plasma Stability Assay; mouse, plasma, 1 h) was 99.5%. The “% Remaining (mean)” value (Plasma Stability Assay; mouse, plasma, 2 h) was 106.6%, the “CD-1 Mouse Plasma % Remaining @ 2 hr” value (Plasma Stability Assay; mouse, plasma, 2 h) was 106.6% and the “Kinetic Solubility pH = 6.8” value (Kinetic Solubility Test; phosphate buffer pH 6.8, 24 h) was 119.75 μg/mL. The solubility kinetic at 24 h (Kinetic Solubility Test; phosphate buffer pH 6.8, 24 h) was 174.28 µM (≈ 120 µg/mL), the “Kinetic solubility (pH 6.8)” value (Kinetic Solubility Test; summary table) was 174.28 μm and the “Caco-2 (Papp A − B)” value (Caco-2 cells) was <0.16 10^−6 cm/s. For the same compound, the “Caco-2 (Papp B − A)” value (Caco-2 cells) was 0.61 10^−6 cm/s, the “Mean Papp A to B” value (Caco-2 cells) was <0.08 10^−6 cm/s and the “Mean Papp B to A” value (Caco-2 cells) was <0.12 10^−6 cm/s. The “Mean Recovery % A to B” value (Caco-2 cells) was less than 74.15% and the “Mean Recovery % B to A” value (Caco-2 cells) was less than 90.87%.
For `Cc1c(-c2ccnn2-c2ccc(C#N)cc2)cc(C(=O)NCC(O)CNC(=O)c2cc(-c3ccnn3-c3ccc(C#N)cc3)c(C)n(-c3cccc(C(F)(F)F)c3)c2=O)c(=O)n1-c1cccc(C(F)(F)F)c1` [Compound 58], the IC50 ([1]; CF sputum) was 203 ± 31.2 nM, the LipE ([1]; CF sputum) was 0.77 and the “inhibitory activity in patient sputum versus purified HNE (in words)” value ([1]; sputum samples of CF and COPD patients) was “potencies diminished drastically”. For the same compound, the LipE ([3]; Purified NHE) was 5.04, the IC50 ([3]; Purified NHE, 30 minutes incubation at room temperature, 100 μM substrate) was 0.0111 ± 0.0002 nM and the IC50 ([3]; purified HNE) was 0.011 nM. For the same compound, the IC50 ([4]; 5 min incubation with inhibitor) was 0.011 nM, the IC50 ([4]; 15 min incubation with inhibitor) was 0.004 nM and the IC50 ([4]; 30 min incubation with inhibitor) was 0.0026 nM. For the same compound, the “increase in potency with increasing incubation times” value ([4]; between 5-60 minutes) was 55 fold, the IC50 [2] was 16.2 ± 2.13 nM and the LipE [2] was 1.87. It also gave a Ki ([5]; 2.5, 25, 50 and 100 μM substrate, mixed model) of 0.0027 nM and a Ki ([5]; purified HNE) of 0.0027 nM.
